Reference: article PMC12921513 (ACS Bio & Med Chem Au, 2025)
Where “and” joins values, the source holds several entries; their conditions need not be identical. Identical values can stand only once.

System: SaFabI
Experiment: SaFabI fluorescence intensity counter-screen
Details: 30 μM inhibitor, 200 nM enzyme
Description: A similar fluorescence intensity assay was utilized to counter-screen against S. aureus (SaFabI) to determine the degree of selectivity for FabK over FabI.
The SaFabI assay was conducted as follows. Reactions were carried out at 25 °C in the assay buffer (50 mM MES pH 5.5, 100 mM NaCl). […] The oxidation of NADPH to NADP^+ was measured by tracking fluorescence (340 nm/460 nm) with a Biotek Synergy H1 microplate reader in 15 s intervals for a total of 10 min to monitor the rate of reaction. Reaction was conducted in Greiner Bio-One 384-Well μClear Bottom Polystyrene Microplates. The percent inhibition of each compound was calculated on the basis of the resulting velocity.

Going from `CS(=O)(=O)c1ccc2nc(NC(=O)NCc3nc(-c4ccc(Br)cc4)c[nH]3)sc2c1` [compound 2] to `O=C(NCc1nc(-c2ccc(Br)cc2)c[nH]1)Nc1nc2cc(Cl)ccc2s1` [compound 3], the “SaFabI % inhibition, 30 μM” value falls from 21.0% to 9.8%.

With `O=C(NCc1nc(-c2ccc(Br)cc2)c[nH]1)Nc1nc2cccc(C(F)(F)F)c2s1` [compound 4] the “SaFabI % inhibition, 30 μM” value was 18%.

In the case of `Oc1cc(Cl)ccc1Oc1ccc(Cl)cc1Cl` [triclosan, reference compound], the “SaFabI % inhibition, 30 μM” value is reported as 99% and 99.9%.
